# Key:
# [1] = Clearance in cynomolgus monkey at 2 mg/kg, po or 0.5 mg/kg, iv administered as cassette dose measured after 24 hrs relative to hepatic blood flow; type: ADME, organism-based, Macaca fascicularis; conditions: in vivo
# CYP2C9 = CYP2C9 (Homo sapiens, UniProt P11712); experiment: Inhibition of CYP2C9 in human liver microsomes using diclofenac as substrate substrate in presence of NADPH by LC-MS/MS analysis; type: ADME; conditions: human, liver microsomes, probe diclofenac
# [2] = Protein binding in human plasma assessed as free fraction measured after 2 hrs by LC-MS/MS analysis; type: ADME, cell-free
# D(2) dopamine receptor = D(2) dopamine receptor (Homo sapiens, UniProt P14416); experiment: Inhibition of human dopamine D2S receptor at 0.1 to 1 uM; conditions: dose 0.1-1 µM
# Sequence of D(2) dopamine receptor (P14416 whole entry): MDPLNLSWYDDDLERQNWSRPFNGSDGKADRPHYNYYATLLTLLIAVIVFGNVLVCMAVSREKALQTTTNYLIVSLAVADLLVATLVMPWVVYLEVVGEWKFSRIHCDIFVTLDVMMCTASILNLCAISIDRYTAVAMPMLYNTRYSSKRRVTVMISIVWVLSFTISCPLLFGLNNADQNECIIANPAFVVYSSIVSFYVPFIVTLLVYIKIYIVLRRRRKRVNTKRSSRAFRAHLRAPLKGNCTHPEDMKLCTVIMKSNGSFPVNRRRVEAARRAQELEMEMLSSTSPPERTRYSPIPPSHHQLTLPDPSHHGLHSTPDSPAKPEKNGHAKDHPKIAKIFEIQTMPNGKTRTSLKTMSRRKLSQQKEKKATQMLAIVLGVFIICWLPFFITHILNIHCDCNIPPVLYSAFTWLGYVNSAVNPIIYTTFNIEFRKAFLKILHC
# [3] = target: Muscarinic acetylcholine receptor M1 (Homo sapiens, UniProt P11229); experiment: Inhibition of human muscarinic M1 receptor at 0.1 to 1 uM; conditions: dose 0.1-1 µM
# Sequence of Muscarinic acetylcholine receptor M1 (P11229 whole entry): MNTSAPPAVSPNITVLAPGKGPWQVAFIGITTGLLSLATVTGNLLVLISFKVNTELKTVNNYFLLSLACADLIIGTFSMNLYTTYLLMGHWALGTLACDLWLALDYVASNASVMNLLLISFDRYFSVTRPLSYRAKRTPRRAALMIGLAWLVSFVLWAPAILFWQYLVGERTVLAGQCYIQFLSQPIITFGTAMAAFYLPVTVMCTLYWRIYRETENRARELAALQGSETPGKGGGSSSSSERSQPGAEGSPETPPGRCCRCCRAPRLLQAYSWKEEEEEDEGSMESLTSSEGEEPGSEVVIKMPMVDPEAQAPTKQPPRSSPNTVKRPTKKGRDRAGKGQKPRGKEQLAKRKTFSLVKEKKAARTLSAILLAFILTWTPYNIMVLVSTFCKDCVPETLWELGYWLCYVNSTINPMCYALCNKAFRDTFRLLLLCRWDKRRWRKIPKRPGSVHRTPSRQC
# [4] = Inhibition of ATP-sensitive potassium channel (unknown origin) at 0.1 to 1 uM; conditions: human, dose 0.1-1 µM
# [5] = Inhibition of calcium activated potassium channel (unknown origin) at 0.1 to 1 uM; conditions: human, dose 0.1-1 µM
# [6] = target: 5-hydroxytryptamine receptor 5A (Homo sapiens, UniProt P47898); experiment: Inhibition of human 5HT5A receptor at 0.1 to 1 uM; conditions: dose 0.1-1 µM
# Sequence of 5-hydroxytryptamine receptor 5A (P47898 whole entry): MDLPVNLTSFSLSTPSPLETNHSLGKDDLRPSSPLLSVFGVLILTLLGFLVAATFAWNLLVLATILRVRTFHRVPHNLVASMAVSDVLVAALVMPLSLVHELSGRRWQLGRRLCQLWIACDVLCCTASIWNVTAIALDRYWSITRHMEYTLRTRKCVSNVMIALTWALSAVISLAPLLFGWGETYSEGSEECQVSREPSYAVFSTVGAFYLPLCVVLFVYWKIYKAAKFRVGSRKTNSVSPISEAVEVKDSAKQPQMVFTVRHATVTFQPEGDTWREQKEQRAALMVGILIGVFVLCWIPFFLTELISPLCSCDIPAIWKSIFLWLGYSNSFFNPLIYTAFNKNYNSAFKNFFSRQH
# [7] = target: 5-hydroxytryptamine receptor 7 (Homo sapiens, UniProt P34969); experiment: Inhibition of human 5HT7 receptor at 0.1 to 1 uM; conditions: dose 0.1-1 µM
# Sequence of 5-hydroxytryptamine receptor 7 (P34969 whole entry): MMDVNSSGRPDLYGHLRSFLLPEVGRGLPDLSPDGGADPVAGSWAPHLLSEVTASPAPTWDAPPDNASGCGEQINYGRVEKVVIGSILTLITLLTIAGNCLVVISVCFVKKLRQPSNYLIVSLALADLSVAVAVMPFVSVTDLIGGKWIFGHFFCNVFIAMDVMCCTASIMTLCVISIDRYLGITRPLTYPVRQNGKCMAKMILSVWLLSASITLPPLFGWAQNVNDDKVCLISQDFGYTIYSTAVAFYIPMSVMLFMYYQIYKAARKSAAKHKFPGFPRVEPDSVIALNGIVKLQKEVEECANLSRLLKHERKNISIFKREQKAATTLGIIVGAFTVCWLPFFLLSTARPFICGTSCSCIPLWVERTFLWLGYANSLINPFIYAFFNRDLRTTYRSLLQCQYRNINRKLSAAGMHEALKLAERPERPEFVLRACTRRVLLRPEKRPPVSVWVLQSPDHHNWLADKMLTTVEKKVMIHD
# [8] = Inhibition of human PDE4A1A at 0.1 to 1 uM; conditions: dose 0.1-1 µM
# [9] = Clearance in Beagle dog at 1 mg/kg, iv measured after 24 hrs relative to hepatic blood flow; type: ADME, organism-based, Canis lupus familiaris; conditions: in vivo
# Sequence of CYP2C9 (P11712 whole entry): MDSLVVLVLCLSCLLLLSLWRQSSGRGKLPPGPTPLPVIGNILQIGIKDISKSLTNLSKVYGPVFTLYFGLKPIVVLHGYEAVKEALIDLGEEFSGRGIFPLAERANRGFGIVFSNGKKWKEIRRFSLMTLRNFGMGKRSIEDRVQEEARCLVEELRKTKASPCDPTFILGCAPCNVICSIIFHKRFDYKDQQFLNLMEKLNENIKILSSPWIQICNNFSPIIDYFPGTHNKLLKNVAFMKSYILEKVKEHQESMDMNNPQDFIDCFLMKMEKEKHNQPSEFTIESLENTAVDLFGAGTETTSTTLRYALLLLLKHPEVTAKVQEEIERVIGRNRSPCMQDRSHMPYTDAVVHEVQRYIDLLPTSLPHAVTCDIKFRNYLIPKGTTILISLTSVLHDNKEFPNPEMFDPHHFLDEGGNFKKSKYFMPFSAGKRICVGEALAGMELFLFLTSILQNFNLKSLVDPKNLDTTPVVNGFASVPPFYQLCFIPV
smiles,measurement,setting,value
CCN1C(=O)N(c2c(F)c(OC)cc(OC)c2F)Cc2cnc3[nH]c(CN4CCOCC4)cc3c21 [PEMIGATINIB],CL,[1],8%
same,IC50,CYP2C9,> 25 µM
same,fraction unbound at 2 h,[2],0.11
same,inhibition (INH),D(2) dopamine receptor,Not Active
same,inhibition (INH),[3],Not Active
same,inhibition (INH),[4],Not Active
same,inhibition (INH),[5],Not Active
same,inhibition (INH),[6],Not Active
same,inhibition (INH),[7],Not Active
same,inhibition (INH),[8],Not Active
same,CL,[9],10%

# Reference: ChEMBL document CHEMBL4808209 (J Med Chem, 2021)
